Source: BindingDB's records for PubMed 11082457 (Centre De Recherches De Croissy, 2000)

Columns and labels:
[1] = target: T1, Alpha-1A adrenergic receptor (Homo sapiens, UniProt P35348)
T1 sequence (P35348 whole entry): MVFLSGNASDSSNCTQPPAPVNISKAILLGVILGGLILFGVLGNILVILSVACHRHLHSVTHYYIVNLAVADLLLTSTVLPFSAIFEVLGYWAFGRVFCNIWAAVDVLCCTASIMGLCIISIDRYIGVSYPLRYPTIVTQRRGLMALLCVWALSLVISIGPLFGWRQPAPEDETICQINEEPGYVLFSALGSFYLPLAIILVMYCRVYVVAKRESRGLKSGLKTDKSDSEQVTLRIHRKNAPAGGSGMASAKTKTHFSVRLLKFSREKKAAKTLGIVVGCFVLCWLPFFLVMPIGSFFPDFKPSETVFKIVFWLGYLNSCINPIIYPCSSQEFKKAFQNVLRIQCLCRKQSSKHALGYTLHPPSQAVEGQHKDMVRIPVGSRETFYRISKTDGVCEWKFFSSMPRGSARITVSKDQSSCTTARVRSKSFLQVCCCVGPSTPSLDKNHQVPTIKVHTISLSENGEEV

[2] = target: T2, Alpha-1D adrenergic receptor (Homo sapiens, UniProt P25100)
T2 sequence (P25100 whole entry): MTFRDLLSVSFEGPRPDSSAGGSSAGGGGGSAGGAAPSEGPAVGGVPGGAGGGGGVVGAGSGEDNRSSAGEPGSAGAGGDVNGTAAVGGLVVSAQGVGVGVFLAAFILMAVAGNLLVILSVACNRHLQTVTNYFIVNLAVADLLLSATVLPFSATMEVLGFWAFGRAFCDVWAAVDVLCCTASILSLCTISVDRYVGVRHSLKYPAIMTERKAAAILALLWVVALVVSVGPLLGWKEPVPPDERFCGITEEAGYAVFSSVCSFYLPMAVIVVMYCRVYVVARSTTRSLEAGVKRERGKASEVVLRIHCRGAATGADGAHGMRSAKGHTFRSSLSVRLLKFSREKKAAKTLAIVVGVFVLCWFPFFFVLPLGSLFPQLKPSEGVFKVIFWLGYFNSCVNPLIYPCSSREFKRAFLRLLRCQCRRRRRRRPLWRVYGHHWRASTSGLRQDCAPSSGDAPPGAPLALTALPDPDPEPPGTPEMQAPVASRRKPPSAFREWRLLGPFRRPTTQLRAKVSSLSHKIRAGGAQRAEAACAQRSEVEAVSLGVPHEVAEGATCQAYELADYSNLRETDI

[3] = target: T3, Nischarin (Bos mutus, UniProt L8IEU8)
T3 sequence (L8IEU8 whole entry): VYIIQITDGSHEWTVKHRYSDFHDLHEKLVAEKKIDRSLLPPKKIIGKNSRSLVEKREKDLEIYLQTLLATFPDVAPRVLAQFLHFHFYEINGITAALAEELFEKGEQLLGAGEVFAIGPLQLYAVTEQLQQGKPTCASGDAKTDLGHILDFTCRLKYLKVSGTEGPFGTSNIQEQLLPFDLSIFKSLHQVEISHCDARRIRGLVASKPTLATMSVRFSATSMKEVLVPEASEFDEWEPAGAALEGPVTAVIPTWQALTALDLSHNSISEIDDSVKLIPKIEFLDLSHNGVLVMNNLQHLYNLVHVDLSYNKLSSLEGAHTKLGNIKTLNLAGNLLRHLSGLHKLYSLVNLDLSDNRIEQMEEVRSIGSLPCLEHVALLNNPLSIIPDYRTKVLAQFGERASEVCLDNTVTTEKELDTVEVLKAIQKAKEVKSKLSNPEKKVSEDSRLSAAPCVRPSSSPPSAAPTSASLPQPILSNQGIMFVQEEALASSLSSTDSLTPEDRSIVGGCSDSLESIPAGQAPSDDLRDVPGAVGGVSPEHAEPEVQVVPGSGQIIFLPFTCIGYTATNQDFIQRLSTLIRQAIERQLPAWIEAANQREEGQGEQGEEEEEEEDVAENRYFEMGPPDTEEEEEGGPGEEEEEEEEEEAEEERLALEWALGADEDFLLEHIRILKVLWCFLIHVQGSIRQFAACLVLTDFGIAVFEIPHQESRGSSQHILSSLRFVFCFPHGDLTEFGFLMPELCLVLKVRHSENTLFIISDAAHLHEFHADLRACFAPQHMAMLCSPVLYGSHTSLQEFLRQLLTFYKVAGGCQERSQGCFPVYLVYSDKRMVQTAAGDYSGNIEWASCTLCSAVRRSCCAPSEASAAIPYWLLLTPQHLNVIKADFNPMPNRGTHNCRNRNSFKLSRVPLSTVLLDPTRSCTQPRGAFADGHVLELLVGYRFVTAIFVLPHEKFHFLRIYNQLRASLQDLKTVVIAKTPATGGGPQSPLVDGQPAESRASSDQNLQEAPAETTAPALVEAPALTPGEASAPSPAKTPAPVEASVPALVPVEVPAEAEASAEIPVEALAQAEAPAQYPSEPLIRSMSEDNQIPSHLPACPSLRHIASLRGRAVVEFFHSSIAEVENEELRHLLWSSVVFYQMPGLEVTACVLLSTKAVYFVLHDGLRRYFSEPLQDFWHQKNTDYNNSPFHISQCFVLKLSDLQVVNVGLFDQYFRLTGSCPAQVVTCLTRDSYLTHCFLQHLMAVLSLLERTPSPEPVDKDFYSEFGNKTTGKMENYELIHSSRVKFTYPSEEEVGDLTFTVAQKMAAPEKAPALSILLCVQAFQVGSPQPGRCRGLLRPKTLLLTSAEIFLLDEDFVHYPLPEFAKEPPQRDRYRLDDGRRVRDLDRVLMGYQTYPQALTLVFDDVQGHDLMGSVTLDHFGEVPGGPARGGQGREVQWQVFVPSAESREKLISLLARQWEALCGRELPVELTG

[4] = target: Beta-2 adrenergic receptor (Homo sapiens, UniProt P07550)
[5] = target: Beta-1 adrenergic receptor (Homo sapiens, UniProt P08588)
Chain of Beta-1 adrenergic receptor (P08588 whole entry): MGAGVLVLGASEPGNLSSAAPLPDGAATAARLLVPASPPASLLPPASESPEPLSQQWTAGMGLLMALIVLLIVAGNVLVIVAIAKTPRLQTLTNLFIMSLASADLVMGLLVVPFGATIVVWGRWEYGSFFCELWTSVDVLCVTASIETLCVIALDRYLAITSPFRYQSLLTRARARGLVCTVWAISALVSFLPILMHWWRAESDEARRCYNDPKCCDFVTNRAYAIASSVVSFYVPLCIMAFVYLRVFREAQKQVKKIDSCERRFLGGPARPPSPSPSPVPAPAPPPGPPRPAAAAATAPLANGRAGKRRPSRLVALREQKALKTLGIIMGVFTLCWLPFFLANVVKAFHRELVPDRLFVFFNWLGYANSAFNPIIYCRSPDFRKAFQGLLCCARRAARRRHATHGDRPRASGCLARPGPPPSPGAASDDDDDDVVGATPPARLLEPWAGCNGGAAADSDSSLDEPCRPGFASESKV

Chain of Beta-2 adrenergic receptor (P07550 whole entry): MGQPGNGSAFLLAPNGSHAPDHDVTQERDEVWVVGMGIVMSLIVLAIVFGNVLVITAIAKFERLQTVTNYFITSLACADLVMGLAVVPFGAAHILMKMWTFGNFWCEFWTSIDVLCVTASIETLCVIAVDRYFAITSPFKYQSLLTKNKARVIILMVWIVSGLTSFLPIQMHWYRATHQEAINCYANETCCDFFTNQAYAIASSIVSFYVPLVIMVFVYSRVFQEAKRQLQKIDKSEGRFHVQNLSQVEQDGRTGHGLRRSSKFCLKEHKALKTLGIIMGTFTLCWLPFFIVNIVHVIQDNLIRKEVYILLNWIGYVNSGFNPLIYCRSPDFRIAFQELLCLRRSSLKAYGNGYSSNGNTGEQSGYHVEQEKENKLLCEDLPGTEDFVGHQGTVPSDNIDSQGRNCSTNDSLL

Row | Compound | Ki [1] [nM] | Ki [2] [nM] | Ki [3] [nM] | Ki [4] [nM] | Ki [5] [nM]
1 | Cc1cccc([C@@H](C)c2cnc[nH]2)c1C | 200 | 79.4 | 200 |  | 
2 | NC1=NC2(CCc3ccccc3C2)CO1 (stereo not drawn) [S18616] | 3.98 | 25.1 | 39.8 | 1000 | 1000
